Literature values in article PMC5655430 (PLoS ONE, 2017).

Experiments:
[1] = tested on: glucagon-like peptide 1 receptor (Glp1r)
Source text: (§1) The complex nature of diabetic disorder necessitates use of combination therapies that will not only reduce hyperglycemia, but also correct other elements of diabetes complication, such as dyslipidemia. An increasingly common approach in peptide therapeutics focuses on hybrid peptides that can target two or even three receptors. […] Similar dual agonist peptides, with improved half-life and potency have been rep ...

[2] = tested on: glucagon receptor (Gcgr)
Source text: as §1

Substance: Oxyntomodulin
- Binding and activation on Glp1r [1]: weak binding and activation
- Binding and activation on Gcgr [2]: weak binding and activation
